The test system of test [1] is Strep. pneumoniae L44 UC41. The experiment in a line: MIC, standard broth dilution test. The conditions noted are these: Todd-Hewitt broth, 24 h; inoculum about 10^4-10^5 cfu/ml. It is filed as cell-based, Streptococcus pneumoniae.
For test [2], the system named is Escherichia coli L47 SKF 12140. The experiment in a line: MIC, standard broth dilution test. It is filed as cell-based. The conditions noted are these: Isosensitest broth, 24 h; inoculum about 10^4-10^5 cfu/ml.
The subject of a further test is Staph. aureus L165. As to the kind of experiment: MIC, standard broth dilution test. The conditions noted are these: Isosensitest broth, 24 h. It is filed as cell-based, Staphylococcus aureus.
In test [3] the test system is Staph. epider midis L147 ATCC 12228 (coagulase negative). As to the kind of experiment: MIC, standard broth dilution test. Type of test: cell-based, Staphylococcus epidermidis. The conditions noted are these: Isosensitest broth, 24 h; inoculum about 10^4-10^5 cfu/ml.
Test [4] concerns Proteus vulgaris L79 X19H ATCC881. It is filed as cell-based. The conditions noted are these: Isosensitest broth, 24 h (Gram-negative bacteria); inoculum about 10^4-10^5 cfu/ml.
Test [5] has as its system Neisseria gonorrhoeae L997 ISM68/126. As to the kind of experiment: MIC, standard broth dilution test. Type of test: cell-based. The conditions noted are these: GC base broth +1% Isovitalex, 48 h, CO2-enriched atmosphere; inoculum about 10^4-10^5 cfu/ml.
The test system of test [6] is Pseudomonas aeruginosa L4 ATCC10145. As to the kind of experiment: MIC, standard broth dilution test. Type of test: cell-based. The conditions noted are these: Isosensitest broth, 24 h (Gram-negative bacteria); inoculum about 10^4-10^5 cfu/ml.
The test system of test [7] is Strep. faecalis L149 ATCC 7080. The experiment in a line: MIC, standard broth dilution test. It is filed as cell-based, Streptococcus faecalis. The conditions noted are these: Isosensitest broth, 24 h; inoculum about 10^4-10^5 cfu/ml.
Test [8] concerns Strep. mitis L796 (clinical isolate). The experiment in a line: MIC, standard broth dilution test. It is filed as cell-based, Streptococcus mitis. The conditions noted are these: Todd-Hewitt broth, 24 h; inoculum about 10^4-10^5 cfu/ml.
Test [9] has as its system Haemophilus influenzae L 970 type b ATCC 19418. As to the kind of experiment: MIC, standard broth dilution test. The conditions noted are these: Brain Heart broth +1% Supplement C, 48 h; inoculum about 10^4-10^5 cfu/ml. It is filed as cell-based.
For test [10], the system named is Staph. haemolyticus L602 (clinical isolate). As to the kind of experiment: MIC, standard broth dilution test. It is filed as cell-based, Staphylococcus haemolyticus. The conditions noted are these: Isosensitest broth, 24 h; inoculum about 10^4-10^5 cfu/ml.
A further test relates to Strep. pyogenes L49 C203. The experiment in a line: MIC, standard broth dilution test. The conditions noted are these: Todd-Hewitt broth, 24 h; inoculum about 10^4-10^5 cfu/ml. It is filed as cell-based, Streptococcus pyogenes.
[11] abbreviates: Staph. aureus (30% bovine serum).
Where [12] appears, read: Staph. aureus L165, inoculum about 10^4-10^5 cfu/ml.

Turning to `CC(=O)N[C@H]1[C@H](OC2c3ccc(c(Cl)c3)Oc3cc4cc(c3O[C@@H]3O[C@H](CO)[C@@H](O)[C@H](O)[C@H]3NC(=O)CCCCCCC(C)C)Oc3ccc(cc3Cl)CC3NC(=O)C(N)c5ccc(O)c(c5)Oc5cc(O)cc(c5)C(NC3=O)C(=O)NC4C(=O)NC3C(=O)NC2C(=O)NC(C(=O)O)c2cc(O)cc(O)c2-c2cc3ccc2O)O[C@H](CO)[C@@H](O)[C@@H]1O` (some centres unmarked) [DM-TA2-2, de-mannosyl teicoplanin complex component 2], the M.I.C. in test [1] was 0.063 microgram/ml; in [2], over 128 microgram/ml; in the test on Staph. aureus L165 (Staph. aureus (10^6 cfu/ml)) it was 0.125 microgram/ml; in the test on Staph. aureus L165 (setting [11]) it was 0.5 microgram/ml; with Staph. aureus L165 (setting [12]), 0.063 microgram/ml; in test [3], 0.063 microgram/ml. The M.I.C. is on record as over 128 microgram/ml in test [4]; 32 microgram/ml in test [5]; over 128 microgram/ml in test [6]; 0.063 microgram/ml in test [7]; 0.063 microgram/ml in test [8]; 64 microgram/ml in [9]. In addition, the M.I.C. was 0.5 microgram/ml in test [10] and 0.063 microgram/ml in the test with Strep. pyogenes L49 C203.
With `CCCCCCCCCC(=O)N[C@H]1[C@H](Oc2c3cc4cc2Oc2ccc(cc2Cl)C(O[C@@H]2O[C@H](CO)[C@@H](O)[C@H](O)[C@H]2NC(C)=O)C2NC(=O)C(NC(=O)C4NC(=O)C4NC(=O)C(Cc5ccc(c(Cl)c5)O3)NC(=O)C(N)c3ccc(O)c(c3)Oc3cc(O)cc4c3)c3ccc(O)c(c3)-c3c(O)cc(O)cc3C(C(=O)O)NC2=O)O[C@H](CO)[C@@H](O)[C@@H]1O` (some centres unmarked) [DM-TA2-3, de-mannosyl teicoplanin complex component 3], the M.I.C. is given as 0.063 microgram/ml in test [1]; over 128 microgram/ml in test [2]; 0.125 microgram/ml with Staph. aureus L165 (Staph. aureus (10^6 cfu/ml)); 0.5 microgram/ml in the test with Staph. aureus L165 (setting [11]); 0.063 microgram/ml in the test with Staph. aureus L165 (setting [12]); 0.063 microgram/ml in [3]. In addition, the M.I.C. is over 128 microgram/ml in [4]; 32 microgram/ml in [5]; 128 microgram/ml in [6]; 0.063 microgram/ml in test [7]; 0.063 microgram/ml in [8]; 64 microgram/ml in test [9]. Moreover, the M.I.C. in test [10] was determined as 0.5 microgram/ml; with Strep. pyogenes L49 C203 it was 0.063 microgram/ml.
In the case of `CCC(C)CCCCCCC(=O)N[C@H]1[C@H](Oc2c3cc4cc2Oc2ccc(cc2Cl)C(O[C@@H]2O[C@H](CO)[C@@H](O)[C@H](O)[C@H]2NC(C)=O)C2NC(=O)C(NC(=O)C4NC(=O)C4NC(=O)C(Cc5ccc(c(Cl)c5)O3)NC(=O)C(N)c3ccc(O)c(c3)Oc3cc(O)cc4c3)c3ccc(O)c(c3)-c3c(O)cc(O)cc3C(C(=O)O)NC2=O)O[C@H](CO)[C@@H](O)[C@@H]1O` (some centres unmarked) [DM-TA2-4, de-mannosyl teicoplanin complex component 4], the M.I.C. is given as 0.063 microgram/ml in test [1]; over 128 microgram/ml in test [2]; 0.25 microgram/ml with Staph. aureus L165 (Staph. aureus (10^6 cfu/ml)); 0.5 microgram/ml in the test on Staph. aureus L165 (setting [11]); 0.125 microgram/ml in the test with Staph. aureus L165 (setting [12]); 0.063 microgram/ml in test [3]. Further, the M.I.C. in test [4] is over 128 microgram/ml; in test [5], 32 microgram/ml; in test [6] it was over 128 microgram/ml; in test [7] it was 0.063 microgram/ml; in test [8], 0.125 microgram/ml; in test [9] it was 64 microgram/ml. Further, the M.I.C. in test [10] came out at 0.5 microgram/ml; in the test on Strep. pyogenes L49 C203, 0.063 microgram/ml.
As for `CC(=O)N[C@H]1[C@H](OC2c3ccc(c(Cl)c3)Oc3cc4cc(c3O[C@@H]3O[C@H](CO)[C@@H](O)[C@H](O)[C@H]3NC(=O)CCCCCCCC(C)C)Oc3ccc(cc3Cl)CC3NC(=O)C(N)c5ccc(O)c(c5)Oc5cc(O)cc(c5)C(NC3=O)C(=O)NC4C(=O)NC3C(=O)NC2C(=O)NC(C(=O)O)c2cc(O)cc(O)c2-c2cc3ccc2O)O[C@H](CO)[C@@H](O)[C@@H]1O` (some centres unmarked) [DM-TA2-5, de-mannosyl teicoplanin complex component 5], the M.I.C. in test [1] is reported as 0.063 microgram/ml; in [2] it was over 128 microgram/ml; with Staph. aureus L165 (Staph. aureus (10^6 cfu/ml)), 0.125 microgram/ml; with Staph. aureus L165 (setting [11]) it was 0.5 microgram/ml; in the test with Staph. aureus L165 (setting [12]), 0.063 microgram/ml; in test [3], 0.063 microgram/ml. The M.I.C. in test [4] is recorded as over 128 microgram/ml; in test [5] it was 32 microgram/ml; in test [6] it was over 128 microgram/ml; in test [7], 0.063 microgram/ml; in test [8], 0.063 microgram/ml; in test [9], 32 microgram/ml. Further, the results for the M.I.C. (in [10]; with Strep. pyogenes L49 C203) were 0.25 microgram/ml and 0.063 microgram/ml, respectively.

(Values after patent US5064811A, “De-mannosyl teicoplanin derivatives” (Gruppo LePetit S.p.A., priority 1987, dated 1991).)
